Tests used:
Assay in all cases: In vitro antibacterial evaluation: minimum inhibitory concentration (MIC), broth dilution method
Type in all cases: cell-based
Settings in all cases: 18 hours at 35° C.
Escherichia coli = system: Escherichia coli
Method in brief: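 Susceptibility determined by NCCLS-recommended broth dilution (M7-A2), Muller-Hinton II […]. Concentration span 64-0.06 μg/mL, inoculum 5×10^5 CFU/mL. Isolates include strains resistant to methicillin, penicillin and/or vancomycin.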

Enterococcus sp. = system: Enterococcus sp.
Method in brief: (§1)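 Following NCCLS approved standard M7-A2, compounds are serially diluted from 64 to 0.06 μg/mL in Muller-Hinton II […] and inoculated at 5×10^5 CFU/mL; the MIC is the minimum concentration at which growth is inhibited.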

Staphylococcus sp. = system: Staphylococcus sp.
Method in brief: as §1

Streptococcus sp. = system: Streptococcus sp.
Method in brief: as §1

[1] = Enterococcus faecalis (ATCC 29212)
[2] = Enterococcus faecalis (GC 2242)
[3] = Enterococcus faecalis (GC 4552)
[4] = Enterococcus faecalis (GC 4553)
[5] = Enterococcus faecalis (GC 4554)
[6] = Coagulase Negative Staphylococcus (GC 4547)
[7] = Coagulase Negative Staphylococcus (GC 4548)
[8] = Coagulase Negative Staphylococcus (GC 4549)
[9] = Coagulase Negative Staphylococcus (GC 4551)
[10] = Coagulase Negative Staphylococcus (ID-3941)
[11] = Staphylococcus aureus (ATCC 29213)
[12] = Staphylococcus aureus (GC 1131)
[13] = Staphylococcus aureus (GC 4541)
[14] = Staphylococcus aureus (GC 4542)
[15] = Staphylococcus aureus (GC 4544)
[16] = Staphylococcus aureus (GC 4545)
[17] = Staphylococcus aureus-SMITH (GC 4543)
[18] = Staphylococcus haemolyticus (GC 4546)
[19] = Streptococcus agalactiae (GC 4564)
[20] = Streptococcus pneumoniae (GC 4565)
[21] = Streptococcus pyogenes (ID-3187)

α-O-[(Butylamino)carbonyl]-cyclo[glycyl-β-methylphenylalanyl-O-(4-O-hexopyranosylhexopyranosyl)tyrosyl-3-(2-iminoimidazolidin-4-yl)seryl-3-(3-hexopyranosyl-2-iminoimidazolidin-4-yl)serylseryl] [Example 252]
>64 µg/mL: MIC Escherichia coli (ATCC 25922) (Escherichia coli) | MIC Enterococcus avium (GC 4558) (Enterococcus sp.; Enterococcus avium (GC 4558)) | MIC Enterococcus faecalis (ATCC 29212) (Enterococcus sp.; [1]) | MIC Enterococcus faecalis (GC 2242) (Enterococcus sp.; [2]) | MIC Enterococcus faecalis (GC 4552) (Enterococcus sp.; [3]) | MIC Enterococcus faecalis (GC 4553) (Enterococcus sp.; [4]) | MIC Enterococcus faecalis (GC 4554) (Enterococcus sp.; [5]) | MIC Enterococcus faecium (GC 2243) (Enterococcus sp.; Enterococcus faecium (GC 2243)) | MIC Enterococcus faecium (GC 4556) (Enterococcus sp.; Enterococcus faecium (GC 4556)) | MIC Enterococcus faecium (GC 4557) (Enterococcus sp.; Enterococcus faecium (GC 4557)) | MIC Coagulase Negative Staphylococcus (GC 4547) (Staphylococcus sp.; [6]) | MIC Coagulase Negative Staphylococcus (GC 4548) (Staphylococcus sp.; [7]) | MIC Coagulase Negative Staphylococcus (GC 4549) (Staphylococcus sp.; [8]) | MIC Coagulase Negative Staphylococcus (GC 4551) (Staphylococcus sp.; [9]) | MIC Coagulase Negative Staphylococcus (ID-3941) (Staphylococcus sp.; [10]) | MIC Staphylococcus aureus (ATCC 29213) (Staphylococcus sp.; [11]) | MIC Staphylococcus aureus (GC 1131) (Staphylococcus sp.; [12]) | MIC Staphylococcus aureus (GC 4541) (Staphylococcus sp.; [13]) | MIC Staphylococcus aureus (GC 4542) (Staphylococcus sp.; [14]) | MIC Staphylococcus aureus (GC 4544) (Staphylococcus sp.; [15]) | MIC Staphylococcus aureus (GC 4545) (Staphylococcus sp.; [16]) | MIC Staphylococcus aureus-SMITH (GC 4543) (Staphylococcus sp.; [17]) | MIC Staphylococcus haemolyticus (GC 4546) (Staphylococcus sp.; [18]) | MIC Streptococcus agalactiae (GC 4564) (Streptococcus sp.; [19]) | MIC Streptococcus pneumoniae (GC 4565) (Streptococcus sp.; [20]) | MIC Streptococcus pyogenes (ID-3187) (Streptococcus sp.; [21])

α-O-[(Dodecylanaino)carbonyl]-cyclo[glycyl-β-methylphenylalanyl-O-(4-O-hexopyranosylhexopyranosyl)tyrosyl-3-(2-iminoimidazolidin-4-yl)seryl-3-(3-hexopyranosyl-2-iminoimidazoliclin-4-yl)serylseryl] [Example 254]
8 µg/mL: MIC Escherichia coli (GC 4559) (Escherichia coli; Escherichia coli (GC 4559)) | MIC Enterococcus faecalis (ATCC 29212) (Enterococcus sp.; [1]) | MIC Enterococcus faecalis (GC 2242) (Enterococcus sp.; [2]) | MIC Enterococcus faecalis (GC 4552) (Enterococcus sp.; [3]) | MIC Enterococcus faecalis (GC 4554) (Enterococcus sp.; [5]) | MIC Enterococcus faecium (GC 4556) (Enterococcus sp.; Enterococcus faecium (GC 4556)) | MIC Enterococcus faecalis (ATCC 29212) (Enterococcus sp.; broth dilution, strain ATCC 29212) | MIC Enterococcus faecalis (GC 2242) (Enterococcus sp.; broth dilution, strain GC 2242) | MIC Enterococcus faecalis (GC 4552) (Enterococcus sp.; broth dilution, strain GC 4552) | MIC Enterococcus faecalis (GC 4554) (Enterococcus sp.; broth dilution, strain GC 4554) | MIC Enterococcus faecium (GC 4556) (Enterococcus sp.; broth dilution, strain GC 4556) | MIC Staphylococcus aureus (GC 4545) (Staphylococcus sp.; [16]) | MIC Staphylococcus aureus (GC 4545) (Staphylococcus sp.; broth dilution, strain GC 4545) | MIC Streptococcus pyogenes (ID-3187) (Streptococcus sp.; [21]) | MIC Streptococcus pyogenes (ID-3187) (Streptococcus sp.; broth dilution, strain ID-3187)
16 µg/mL: MIC Streptococcus pneumoniae (GC 4565) (Streptococcus sp.; [20]) | MIC Streptococcus pneumoniae (GC 4565) (Streptococcus sp.; broth dilution, strain GC 4565)
64 µg/mL: MIC Escherichia coli (ATCC 25922) (Escherichia coli)
2 µg/mL: MIC Enterococcus faecium (GC 4557) (Enterococcus sp.; Enterococcus faecium (GC 4557)) | MIC Enterococcus faecium (GC 4557) (Enterococcus sp.; broth dilution, strain GC 4557) | MIC Coagulase Negative Staphylococcus (GC 4549) (Staphylococcus sp.; [8]) | MIC Coagulase Negative Staphylococcus (ID-3941) (Staphylococcus sp.; [10]) | MIC Coagulase Negative Staphylococcus (GC 4549) (Staphylococcus sp.; broth dilution, strain GC 4549) | MIC Coagulase Negative Staphylococcus (ID-3941) (Staphylococcus sp.; broth dilution, strain ID-3941)
4 µg/mL: MIC Escherichia coli (GC 4560) (Escherichia coli; Escherichia coli (GC 4560)) | MIC Enterococcus avium (GC 4558) (Enterococcus sp.; Enterococcus avium (GC 4558)) | MIC Enterococcus faecalis (GC 4553) (Enterococcus sp.; [4]) | MIC Enterococcus faecium (GC 2243) (Enterococcus sp.; Enterococcus faecium (GC 2243)) | MIC Enterococcus faecium (GC 2243) (Enterococcus sp.; broth dilution, strain GC 2243) | MIC Enterococcus faecalis (GC 4553) (Enterococcus sp.; broth dilution, strain GC 4553) | MIC Enterococcus avium (GC 4558) (Enterococcus sp.; broth dilution, strain GC 4558) | MIC Coagulase Negative Staphylococcus (GC 4547) (Staphylococcus sp.; [6]) | MIC Coagulase Negative Staphylococcus (GC 4548) (Staphylococcus sp.; [7]) | MIC Coagulase Negative Staphylococcus (GC 4551) (Staphylococcus sp.; [9]) | MIC Staphylococcus aureus (ATCC 29213) (Staphylococcus sp.; [11]) | MIC Staphylococcus aureus (GC 1131) (Staphylococcus sp.; [12]) | MIC Staphylococcus aureus (GC 4541) (Staphylococcus sp.; [13]) | MIC Staphylococcus aureus (GC 4542) (Staphylococcus sp.; [14]) | MIC Staphylococcus aureus (GC 4544) (Staphylococcus sp.; [15]) | MIC Staphylococcus aureus-SMITH (GC 4543) (Staphylococcus sp.; [17]) | MIC Staphylococcus haemolyticus (GC 4546) (Staphylococcus sp.; [18]) | MIC Staphylococcus aureus (ATCC 29213) (Staphylococcus sp.; broth dilution, strain ATCC 29213) | MIC Staphylococcus aureus (GC 1131) (Staphylococcus sp.; broth dilution, strain GC 1131) | MIC Staphylococcus aureus (GC 4541) (Staphylococcus sp.; broth dilution, strain GC 4541) | MIC Staphylococcus aureus (GC 4542) (Staphylococcus sp.; broth dilution, strain GC 4542) | MIC Staphylococcus aureus-SMITH (GC 4543) (Staphylococcus sp.; broth dilution, strain GC 4543) | MIC Staphylococcus aureus (GC 4544) (Staphylococcus sp.; broth dilution, strain GC 4544) | MIC Staphylococcus haemolyticus (GC 4546) (Staphylococcus sp.; broth dilution, strain GC 4546) | MIC Coagulase Negative Staphylococcus (GC 4547) (Staphylococcus sp.; broth dilution, strain GC 4547) | MIC Coagulase Negative Staphylococcus (GC 4548) (Staphylococcus sp.; broth dilution, strain GC 4548) | MIC Coagulase Negative Staphylococcus (GC 4551) (Staphylococcus sp.; broth dilution, strain GC 4551) | MIC Streptococcus agalactiae (GC 4564) (Streptococcus sp.; [19]) | MIC Streptococcus agalactiae (GC 4564) (Streptococcus sp.; broth dilution, strain GC 4564)

From US8247211B2, “Glycopeptide antibiotics” (American Cyanamid Company, priority 2001, dated 2012)
